Patent publication US4321381A, “Ergot derivatives” (Farmitalia Carlo Erba S.p.A., priority 1978, dated 1982)

Tests used:
[1] = test system: spontaneously hypertensive male rats, strain MHS; experiment: Anti-hypertensive activity in the spontaneously hypertensive rat (MHS): blood pressure and heart rate at the tail; type: in vivo
Description: 1. Spontaneously Hypertensive Rat (MHS)
Four spontaneously hypertensive male rats, strain MHS, weight 250 to 300 g for each group were used. The animals were treated for four consecutive days. The drugs were administered by gastric gavage while suspended in 5% arabic gum (0.2 ml/100 g body weight), and blood pressure (BP) and heart rate (HR) were measured at the tail by BP Recorder W+W. Blood pressure and heart rate were measured on the first and fourth day of treatment 1 hour before and 1 and 5 hours after drug administration.

[2] = test system: normotensive rats; experiment: Blood pressure and heart rate in the conscious normotensive rat (NR); type: in vivo; conditions: 5 mg/kg os
Description: Blood pressure recordings have been made in conscious normotensive unrestrained rats weighing approximately 300 g, via a catheter chronically inserted into the left common carotid artery. Implantation of arterial cannula was made under sodium pentobarbital anesthesia (50 mg/kp i.p.) A 1 cm long incision was made through the previously shaved ventral surface of the neck and the tissues overlying the trachea parted by blunt dissection to reveal the carotid artery. The polyethylene catheter used was made with PE 50 tubing, previously filled with saline containing 250 I.U./ml heparin. The tip of the cannula was pushed at least 2 cm inside the vessel toward the heart. The cannula was then firmly tied and passed beneath the skin to emerge from a small incision in the back of the neck. During the post-operative period and before the start of each recording session, the cannula was flushed through daily with saline containing heparin (250 I.U./ml). The experiments were performed two days after surgery. Drugs were administered by gastric gavage.

[3] = Acute toxicity (LD50) in mice; type: in vivo, mouse; conditions: mouse, in vivo; male mice; oral; observed for seven days
Source text: Evaluation of the Toxicity (LD50)
Ten male mice for each group were orally treated with drugs at different dose levels for the determination of lethal dose 50 (LD50).

CN1C[C@H](CC(C#N)C(N)=O)C[C@@H]2c3cccc4[nH]cc(c34)C[C@H]21 (stereo partly drawn) [355/1057, 2-Cyano-3-(6'-methylergoline-8'β)-propionamide]
Change in BP, 1 hr after dose, first day ([1]; 2 mg/kg os): -25 mm Hg | Change in HR, 1 hr after dose, first day ([1]; 2 mg/kg os): 0 b/min | Change in HR, 5 hr after dose, first day ([1]; 2 mg/kg os): -8 b/min | Change in BP, 5 hrs after dose, first day ([1]; 2 mg/kg os): 0 mm Hg | Change in BP, 1 hr after dose, fourth day ([1]; 2 mg/kg os): -26 mm Hg | Change in HR, 1 hr after dose, fourth day ([1]; 2 mg/kg os): -2 b/min | Change in HR, 5 hr after dose, fourth day ([1]; 2 mg/kg os): -5 b/min | Change in BP, 5 hrs after dose, fourth day ([1]; 2 mg/kg os): -31 mm Hg | Change in BP, 1 hr after dose, first day ([1]; 5 mg/kg os): -51 mm Hg | Change in HR, 1 hr after dose, first day ([1]; 5 mg/kg os): +5 b/min | Change in HR, 5 hr after dose, first day ([1]; 5 mg/kg os): +35 b/min | Change in BP, 5 hrs after dose, first day ([1]; 5 mg/kg os): -41 mm Hg | Change in BP, 1 hr after dose, fourth day ([1]; 5 mg/kg os): -45 mm Hg | Change in HR, 1 hr after dose, fourth day ([1]; 5 mg/kg os): +25 b/min | Change in HR, 5 hr after dose, fourth day ([1]; 5 mg/kg os): +20 b/min | Change in BP, 5 hrs after dose, fourth day ([1]; 5 mg/kg os): -31 mm Hg | Change in Blood Pressure after Treatment, 30' ([2]; 30'): -23 mm Hg | Change in heart rate after treatment, 30' ([2]; 30'): -25 b/min | Change in Blood Pressure after Treatment, 60' ([2]; 60'): -23 mm Hg | Change in heart rate after treatment, 60' ([2]; 60'): -40 b/min | Change in Blood Pressure after Treatment, 120' ([2]; 120'): -22 mm Hg | Change in heart rate after treatment, 120' ([2]; 120'): -42 b/min | Change in Blood Pressure after Treatment, 180' ([2]; 180'): -21.7 mm Hg | Change in heart rate after treatment, 180' ([2]; 180'): -22 b/min | Change in Blood Pressure after Treatment, 240' ([2]; 240'): -23 mm Hg | Change in heart rate after treatment, 240' ([2]; 240'): +10 b/min | Change in Blood Pressure after Treatment, 360' ([2]; 360'): -20 mm Hg | Change in heart rate after treatment, 360' ([2]; 360'): +3 b/min | Change in Blood Pressure after Treatment, 24h ([2]; 24h): -12 mm Hg | Change in heart rate after treatment, 24h ([2]; 24h): +6 b/min | LD50 at 168 h [3]: > 1000 mg/kg

C=CCN1C[C@H](CC(C#N)C(N)=O)C[C@@H]2c3cccc4[nH]cc(c34)C[C@H]21 (stereo partly drawn) [355/1266, 2-Cyano-3-(6'-allylergoline-8'β)-propionamide]
Change in BP, 1 hr after dose, first day ([1]; 2 mg/kg os): -14 mm Hg | Change in BP, 5 hrs after dose, first day ([1]; 2 mg/kg os): -15 mm Hg | Change in BP, 1 hr after dose, fourth day ([1]; 2 mg/kg os): -25 mm Hg | Change in BP, 5 hrs after dose, fourth day ([1]; 2 mg/kg os): -45 mm Hg | Change in BP, 1 hr after dose, first day ([1]; 5 mg/kg os): -14 mm Hg | Change in BP, 5 hrs after dose, first day ([1]; 5 mg/kg os): -10 mm Hg | Change in BP, 1 hr after dose, fourth day ([1]; 5 mg/kg os): -35 mm Hg | Change in BP, 5 hrs after dose, fourth day ([1]; 5 mg/kg os): -60 mm Hg

CCCN1C[C@H](CC(C#N)C(=O)NCC)C[C@@H]2c3cccc4[nH]cc(c34)C[C@H]21 (stereo partly drawn) [355/1281, 2-Cyano-3-(6'-n-propylergoline-8'β)-N-ethyl-propionamide]
Change in BP, 1 hr after dose, first day ([1]; 5 mg/kg os): -25 mm Hg | Change in BP, 5 hrs after dose, first day ([1]; 5 mg/kg os): -15 mm Hg | Change in BP, 1 hr after dose, fourth day ([1]; 5 mg/kg os): -30 mm Hg | Change in BP, 5 hrs after dose, fourth day ([1]; 5 mg/kg os): -35 mm Hg

CCCN1C[C@H](CC(C#N)C(N)=O)C[C@@H]2c3cccc4[nH]cc(c34)C[C@H]21 (stereo partly drawn) [355/1282, 2-Cyano-3-(6'n-propylergoline-8'β)-propionamide]
Change in BP, 1 hr after dose, first day ([1]; 2 mg/kg os): -20 mm Hg | Change in BP, 5 hrs after dose, first day ([1]; 2 mg/kg os): -10 mm Hg | Change in BP, 1 hr after dose, fourth day ([1]; 2 mg/kg os): -15 mm Hg | Change in BP, 5 hrs after dose, fourth day ([1]; 2 mg/kg os): -25 mm Hg | Change in BP, 1 hr after dose, first day ([1]; 5 mg/kg os): -40 mm Hg | Change in BP, 5 hrs after dose, first day ([1]; 5 mg/kg os): -45 mm Hg | Change in BP, 1 hr after dose, fourth day ([1]; 5 mg/kg os): -25 mm Hg | Change in BP, 5 hrs after dose, fourth day ([1]; 5 mg/kg os): -30 mm Hg

C=CCN1C[C@H](CC(C#N)C(=O)NCC)C[C@@H]2c3cccc4[nH]cc(c34)C[C@H]21 (stereo partly drawn) [355/1320, 2-Cyano-3-(6'-allylergoline-8'β)-N-ethylpropionamide]
Change in BP, 1 hr after dose, first day ([1]; 5 mg/kg os): -30 mm Hg | Change in BP, 5 hrs after dose, first day ([1]; 5 mg/kg os): -20 mm Hg | Change in BP, 1 hr after dose, fourth day ([1]; 5 mg/kg os): -20 mm Hg | Change in BP, 5 hrs after dose, fourth day ([1]; 5 mg/kg os): -15 mm Hg
